Values quoted from earlier work as cited in patent US8637672B2 (Deciphera Pharmaceuticals, LLC, priority 2010, dated 2014).

Columns and labels:
[1] = molecular target: T1, c-MET kinase (Homo sapiens, UniProt P08581); details: values published in the '188 application (pp. 96-97); cited from earlier work
T1 construct: His6 with TEV-site leader (N); purchased Invitrogen PV3143

[2] = molecular target: VEGFR-2 (KDR kinase) (Homo sapiens, UniProt P35968, DEL940-989/E990V); details: values published in the '188/'556 applications; cited from earlier work
VEGFR-2 (KDR kinase), sequence (P35968 with tags, fused parts or gaps DEL940-989/E990V): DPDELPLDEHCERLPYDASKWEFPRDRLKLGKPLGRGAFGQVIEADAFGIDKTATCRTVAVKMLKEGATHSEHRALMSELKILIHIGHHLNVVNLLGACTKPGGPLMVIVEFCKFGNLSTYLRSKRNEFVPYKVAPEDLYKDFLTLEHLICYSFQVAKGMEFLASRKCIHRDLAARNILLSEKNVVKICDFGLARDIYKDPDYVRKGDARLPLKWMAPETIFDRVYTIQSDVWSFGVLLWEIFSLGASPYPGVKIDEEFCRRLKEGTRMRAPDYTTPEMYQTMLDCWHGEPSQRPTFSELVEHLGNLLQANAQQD

T1 sequence (P08581 with tags, fused parts or gaps): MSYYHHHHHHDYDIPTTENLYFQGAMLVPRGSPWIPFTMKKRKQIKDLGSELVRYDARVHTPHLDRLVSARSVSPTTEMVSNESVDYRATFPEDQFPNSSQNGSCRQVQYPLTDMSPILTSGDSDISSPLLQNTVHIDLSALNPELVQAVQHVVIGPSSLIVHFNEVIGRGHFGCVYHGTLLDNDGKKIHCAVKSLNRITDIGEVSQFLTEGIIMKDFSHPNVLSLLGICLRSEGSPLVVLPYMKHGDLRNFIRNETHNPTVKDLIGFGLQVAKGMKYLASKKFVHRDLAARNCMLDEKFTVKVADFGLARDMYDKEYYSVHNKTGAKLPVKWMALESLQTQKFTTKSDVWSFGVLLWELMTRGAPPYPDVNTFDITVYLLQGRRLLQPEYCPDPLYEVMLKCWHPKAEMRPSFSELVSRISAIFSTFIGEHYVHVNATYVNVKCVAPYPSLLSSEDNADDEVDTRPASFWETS

Row | Structure (SMILES) | IC50 [1] | IC50 [2]
1 | CN1CCN(C2CCN(C(=O)Nc3cc(Oc4cc(F)c(NC(=O)C5(C(=O)Nc6ccc(F)cc6)CC5)cc4F)ccn3)CC2)CC1 [Compound G] | 53 nM | 100 nM
2 | O=C(Nc1cc(Oc2cc(F)c(NC(=O)C3(C(=O)Nc4ccc(F)cc4)CC3)cc2F)ccn1)N1CC(CO)C1 [Compound H] | 4 nM | 10 nM
